Where “and” joins values, the source holds several entries; their conditions need not be identical. Equal values may be shown once. Read-outs that look alike come from different tables or passages of the source.
What was measured:
[1] = In vivo brain penetration measurement in rat (plasma and brain concentration, Kp"brain"); settings: for Brain concentration / Plasma concentration / concentration at 3.75 h: male Sprague-Dawley rat, end of 3.75 h constant-rate i.v. infusion; for Brain concentration / Plasma concentration / concentration at 3.75 h / Kp at 3.75 h / Kp"brain" (total brain/plasma concentration ratio at steady state): 4 mg/kg; for concentration at 3.75 h / Kp at 3.75 h: male, Sprague-Dawley, iv; for Kp at 3.75 h: brain/plasma; for Kp at 3.75 h / Kp"brain" (total brain/plasma concentration ratio at steady state): 3.75 h i.v. infusion
Method: The femoral vein of male Sprague-Dawley rats (CRL) weighing around 250 g was surgically catheterized at least 72 hours prior to the experiment. The drug was administered as 3.75 h constant-rate intravenous infusion to approach steady state, using a flow rate of 0.8 mL/h, corresponding to dosage of 4 mg/kg (1.067 mg/kg/h, i.e. 1 mg/rat of ˜250 g). The vehicle used was saline.
At the end of the infusion, the rats were anesthetized by inhalation of isoflurane, and blood was collected in a heparinized tube from the abdominal aorta, followed by immediate rinsing of the bloodstream for 2 minutes with saline at a rate of 15 mL/min using a peristaltic pump and left intraventricle cannula (flowing via right atrium). The brain (without cerebellum) was removed, and transferred in a tube and homogenized in two volumes of deionized water using a tissue homogenizer (Precellys24). All samples were stored at −20° C. until analysis. Plasma and brain homogenate sample preparation was performed using solid phase extraction on OASIS® WCX (Waters) and compounds were quantified by reversed phase liquid chromatography and positive electrospray ionization and multiple reaction monitoring mass spectrometry (LC-MS/MS).
This parameter is defined as the ratio of concentrations in brain and blood, Kp“brain” (Cbrain/Cplasma) or log(BB). Log(BB) is the logarithm of the ratio of the steady-state total concentration of a compound in the brain to that in the blood/plasma, log(BB)=log(Cbrain/Cplasma). This parameter depends upon the passive diffusion characteristics, the implication of membrane transporters at the BBB level and the relative drug binding affinity differences between the plasma proteins and brain tissue. Generally, compounds with a brain/plasma ratio of greater than 0.3-0.5 are considered to have sufficient access to the CNS, compounds with a value greater than 1 freely cross the BBB, whereas compounds with a brain/plasma ratio smaller than 0.1 may be unable to enter the CNS.
Thus, the brain penetration of memantine and Compound N^o1 was measured in rat by establishing the brain/plasma ratio, Kp“brain” in triplicate (3 rats/Compound). The three tables below (Tables 1-3) show the results on plasma concentration, brain concentration and calculation of the Kp“brain” for the two compounds memantine and Compound N^° 1.

NMDAR = NMDAR blocking activity, whole-cell voltage clamp (patch-clamp) recordings from rat hippocampal neurons; type: cell-based; settings: read-out: IC50 (NMDAR antagonist activity)
[2] = rat, brain, mean of 3 rats, read-out: Brain concentration, Mean
[3] = rat, rat, mean of 3 rats, read-out: Kp"brain", Mean
[4] = rat, plasma, individual rats, read-out: Plasma concentration
[5] = rat, plasma, mean of 3 rats, read-out: Plasma concentration, Mean
[6] = rat hippocampal neurons, -60 mV, currents evoked by 100 μM NMDA and 20 μM D-serine

## CC12CC3CC(C)(C1)CC([N+](C)(C)C)(C3)C2 [Compound No1, N,N,N,3,5-Pentamethyladamantan-1-ammonium iodide]
[1]; individual rats
  Brain concentration: 0.90 ng/g and 3.57 ng/g and 3.03 ng/g
  Plasma concentration: 23.11 ng/mL and 24.52 ng/mL
[1]; [2]
  concentration at 3.75 h: 2.5 ng/g
[1]; [3]
  Kp at 3.75 h: 0.091
[1]; [4]
  concentration at 3.75 h: 34.8 ng/mL
[1]; [5]
  concentration at 3.75 h: 27.5 ng/mL
[1]; rat, individual rats
  Kp"brain" (total brain/plasma concentration ratio at steady state): 0.15 and 0.09 and 0.04
NMDAR; [6]
  IC50: 9.9 µM

## CC12CC3CC(C)(C1)CC([N+](C)(C)C)(C3)C2 [Compound No1′]
NMDAR; rat hippocampal neurons, -60 mV, currents evoked by 100 μM NMDA and 20 μM D-serine, listed as Compound N^o1′
  IC50: ~10 µM
NMDAR; [6]
  IC50: 11.6 µM

## CC[N+](C)(C)C12CC3CC(C)(CC(C)(C3)C1)C2 [Compound No2, N-Ethyl-N,N-3,5-tetramethyladamantan-1-ammonium iodide]
NMDAR; [6]
  IC50: 18 µM

## CCC[N+](C)(C)C12CC3CC(C)(CC(C)(C3)C1)C2 [Compound No3, N-Propyl-N,N-3,5-tetramethyladamantan-1-ammonium iodide]
NMDAR; [6]
  IC50: 29 µM

## CCCC[N+](C)(C)C12CC3CC(C)(CC(C)(C3)C1)C2 [Compound No4, N-Butyl-N,N-3,5-tetramethyladamantan-1-ammonium iodide]
NMDAR; [6]
  IC50: 110 µM

## CC(C)CC[N+](C)(C)C12CC3CC(C)(CC(C)(C3)C1)C2 [Compound No6, N-isoPentyl-N,N-3-5-tetramethyladamantan-1-ammonium iodide]
NMDAR; [6]
  IC50: 14.3 µM

## CC12CC3CC(C)(C1)CC([N+](C)(C)CC1CC1)(C3)C2 [Compound No8, N-(Cyclopropylmethyl)-N,N-3,5-tetramethyladamantan-1-ammonium iodide]
NMDAR; [6]
  IC50: 3.5 µM

## CC12CC3CC(C)(C1)CC([N+](C)(C)CC1CCCCC1)(C3)C2 [Compound No9, N-(Cyclohexylmethyl)-N,N-3,5-tetramethyladamantan-1-ammonium iodide]
NMDAR; [6]
  IC50: 35.2 µM

## CC12CC3CC(C)(C1)CC(N)(C3)C2 [Memantine, memantine]
[1]; individual rats
  Brain concentration: 2977 ng/g and 3237 ng/g
  Plasma concentration: 88.69 ng/mL and 94.85 ng/mL
[1]; rat, brain, individual rats, read-out: Brain concentration
  concentration at 3.75 h: 3340 ng/g
[1]; [2]
  concentration at 3.75 h: 3180 ng/g
[1]; rat, rat, individual rats, read-out: Kp"brain" (total brain/plasma concentration ratio at steady state)
  Kp at 3.75 h: 27.1
[1]; [3]
  Kp at 3.75 h: 31.6
[1]; [4]
  concentration at 3.75 h: 123 ng/mL
[1]; [5]
  concentration at 3.75 h: 102 ng/mL
[1]; rat
  Penetration of the BBB / CNS (in words): penetrates freely across the BBB
[1]; rat, individual rats
  Kp"brain" (total brain/plasma concentration ratio at steady state): 33.57 and 34.13
NMDAR
  IC50: 1 µM

From patent publication US10538482B2, “Adamantane and memantine derivatives as peripheral NMDA receptor antagonists” (Institut National de la Santé et de la Recherche Médicale …, priority 2015, dated 2020)
